{"source": "patent US20120028265A1", "about": "“METHODS OF USING RET NANOSENSORS” (priority 2007, published 2012)", "key": {"[1]": {"target": "FLIParaF.Ec-200n, FRET nanosensor: E. coli K12 AraF (L-arabinose binding protein) fused between eCFP and Venus (Escherichia coli, UniProt P02924)", "sequence (P02924 24-329)": "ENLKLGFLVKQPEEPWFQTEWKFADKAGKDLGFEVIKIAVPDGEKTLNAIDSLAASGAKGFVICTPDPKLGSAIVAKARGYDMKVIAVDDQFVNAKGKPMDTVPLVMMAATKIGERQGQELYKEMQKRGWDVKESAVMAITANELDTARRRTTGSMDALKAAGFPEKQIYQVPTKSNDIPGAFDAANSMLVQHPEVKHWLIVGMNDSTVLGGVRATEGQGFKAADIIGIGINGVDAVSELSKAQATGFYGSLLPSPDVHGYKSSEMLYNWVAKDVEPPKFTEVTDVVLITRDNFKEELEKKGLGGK", "assay": "In vitro FRET titration of purified arabinose nanosensor", "settings": "D/L-arabinose; apparent; purified sensor, 20 mM MOPS pH 7.0, Venus/eCFP emission ratio 528/485 nm, single-site isotherm", "text": "The araF gene (EMBL: K00420) was amplified from Escherichia coli K12 genomic DNA using homologous primers, resulting in a PCR product that consisted of araF without stopcodon flanked by phage lambda attB recombination sites. The araF gene was fused between eCFP and Venus coding sequences of pGW1 through pDONR (Invitrogen) using […] (Invitrogen), respectively. The final construct was denoted pGW1araF.Ec and the correct sequence of the araF gene was verified by DNA sequencing (Sequetech). The gene product encoded on pGW1araF.Ec was denoted FLIParaF.Ec-200n.\nThe eCFP emission used for the ratio calculation was determined at 485 nm. Protein was diluted to give Venus/eYFP readouts of 20,000 to 30,000 at a manual gain between 70-75. By using the change in FRET ratio upon binding of ligand, affinity constants (Kd) were determined by fitting the titration curves to a single-site-binding isotherm:\nR=Rapo+(Rsat−Rapo)·(n·[L])/(Kd+[L])\nwith [L], ligand concentration; n, number of equal binding sites; R, ratio; Rapo, ratio in the absence of ligand; and Rsat, ratio at saturation with ligand. Three independent protein preparations were analyzed and each protein preparation was analyzed in triplicate."}, "[2]": {"test_system": "E. coli L-arabinose binding protein AraF, unmodified", "settings": "tryptophan fluorescence spectroscopy, read-out: affinity (Kd); cited from earlier work"}, "[3]": {"target": "glucose nanosensor (not named in Example 9)", "settings": "read-out: affinity constant for glucose", "procedure": "The confidence range for calculation of intracellular glucose concentrations is determined by the quality of the recorded sensor response data. As a rule of thumb, data with standard deviations off ±2.5% and ±5% can be interpreted between 10% and 90% and between 20% and 80% saturation, respectively. Monitoring the sensor response in presence of alternating analyte concentrations yields information about transport and metabolism in the targeted subcellular compartment from (1) the intracellular accumulation rate upon addition of the analyte, which is composed of influx rate minus metabolism and export rates, (2) the elimination rate when the analyte is removed, which is composed of export plus metabolism minus influx, (3) the steady state level of the sensor response, in which influx equals metabolism and efflux, and (4) the time delay before a sensor response can be recorded, which represents differences in influx rates or metabolism."}, "[4]": {"target": "FLII12Pglu700μ-δ6 glucose nanosensor (Escherichia coli, UniProt P0AEE5)", "sequence (P0AEE5 24-332 limits assumed)": "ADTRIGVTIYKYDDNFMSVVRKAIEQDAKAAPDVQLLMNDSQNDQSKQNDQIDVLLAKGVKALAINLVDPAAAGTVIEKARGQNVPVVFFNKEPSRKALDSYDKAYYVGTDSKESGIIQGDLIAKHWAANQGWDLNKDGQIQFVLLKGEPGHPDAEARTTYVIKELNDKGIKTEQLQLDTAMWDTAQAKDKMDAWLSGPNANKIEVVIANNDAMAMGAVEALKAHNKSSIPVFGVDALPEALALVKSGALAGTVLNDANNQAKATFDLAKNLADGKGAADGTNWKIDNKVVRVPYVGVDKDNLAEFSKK", "format": "binding", "settings": "read-out: Kd, affinity constant of nanosensor; used for theoretical saturation curve", "procedure": "(A) Theoretical curve of glucose-induced FRET changes of FLII12Pglu700μ-δ6. […] Light gray shaded area indicates 10-90% confidence range of FLII12Pglu700μ-δ6 detection range, the dark gray shaded area indicates 20-80% confidence range. (B) Effect of the variation in ratio data (SD) on the determination of glucose concentrations. […] The calculated glucose concentration from the average of ratio data was set as 100%. In vivo glucose concentration was calculated from the equation: [gluc]vivo=Kd×(Δr−1)/(ΔRmax−Δr) with [G], glucose concentration; Kd, affinity constant of nanosenor; Δr, partial ratio change; ΔRmax, maximum ratio change. (C) Examples of in vivo glucose concentration dynamics upon cell perfusion and nanosenor range of FLII12Pglu700μ-δ6. The glucose concentration dynamics within the nanosenor range report differences in 1) accumulation rate, 2) elimination rate, 3) steady-state level, and 4) delay in nanosenor response. Gray lines indicate real in vivo glucose concentration dynamics and black lines indicate the nanosenor saturation of FLII12Pglu700μ-δ6. (D) In vivo glucose concentration-time plot (black line) with ratio ±SD and confidence range (grey lines) of FLII12Pglu700μ-δ6."}}}
{"smiles": "OC1COC(O)C(O)C1O", "note": "(racemic) [D/L-arabinose]", "values": [{"measurement": "Kd", "setting": "[1]", "value": "0.23 ± 0.018", "unit": "µM"}]}
{"smiles": "OC1OC[C@H](O)[C@H](O)[C@H]1O", "note": "(stereo partly drawn) [L-arabinose]", "values": [{"measurement": "Kd", "setting": "[2]", "value": "0.098 ± 0.033", "unit": "µM"}]}
{"smiles": "OC[C@H]1OC(O)[C@H](O)[C@@H](O)[C@@H]1O", "note": "(stereo partly shown) [glucose]", "values": [{"measurement": "Kd", "setting": "[3]", "value": 600, "unit": "µM"}, {"measurement": "Kd", "setting": "[4]", "value": 660, "unit": "µM"}]}
